# Measured values taken from patent US9315534B2, “Radiologic agents for monitoring alzheimer's disease progression and Evaluating a Response to Therapy and processes for the preparation of such agents” (BOARD OF REGENTS OF THE UNIVERSITY OF NEBRASKA, priority 2007, dated 2016).
# Experiments:
# [1] = target: T1, BChE (Mus musculus, UniProt Q03311)
# Protocol: Biodistribution studies were also conducted on 3, another BChE-binding derivative, in AD mouse and in normal controls. This study of 3 was conducted in >12-months old AD mice and matching control mice. All mice received IV 10 μCi of 3. Mice were killed 48 hours later. Tissues were collected and their radioactive content determined in a γ counter. One-half of each brain was fixed. The radioactivity in the other half was counted in a γ counter.
# [2] = target: T1, BChE; conditions: IV 0.5 mCi, 48 hours
# Protocol: FIG. 7 provides images of microautoradiography of brain sections of AD mouse treated with IV dose of 0.5 mCi 3. Mouse was killed 48 hours after the administration of 3. Counterstained H&E; 10×.
# FIG. 8 provides a microautoradiography of brain sections of the matching control mouse also treated with IV doses of 0.5 mCi 3. Mouse was killed 48 hours after the administration of 3. Counterstained H&E; 10×.
# FIG. 9 provides an image of a section of brain from control mouse treated with 3 48 hours before necropsy. 100×; H&E.
# FIG. 10 provides images of brain sections from AD mouse 48 hours after IV dose of 0.5 mCi 3. […] FIG. 10D: Cross-section of a blood vessel containing red blood cells surrounded by silver grains corresponding to circulating 3.
# FIG. 8 is the corresponding section of a brain from a matched control mouse treated in the same manner. […] Imperfections in focus are because brain sections and silver grains are in different planes, tissue section vs. emulsion.
# [3] = Solubility in water, buffers and physiologically appropriate solvents
# [4] = target: T1, BChE; conditions: for activity in head of AD mouse, planar image: 1 hour after tail vein IV 0.5 mCi
# Protocol: Two sets of preliminary biodistribution studies were conducted: (1) in normal athymic mice to determine general biodistribution and the brain uptake; and (2) in at least ˜7-14 months old APPswe mice (strain B6C3-Tg(APPswe,PSEN1dE9)85 Dbo/J; abbreviated as AD mice in the text below). JAX® GEMM® Strain wildtype mice from the colony were used as the control. B6C3-Tg(APPswe,PSEN1dE9) 85 Dbo/J is a double transgenic mice expressing chimeric mouse/human amyloid precursor protein(Mo/Hu APP695swe) and a mutant human presenilin 1(PS1-dE9) both directed to CNS neurons. Both mutations are associated with the early onset AD. Aβ plaques are produced in these mice in hippocampus and cortex by 9 months of age with the occasional deposits found in mice as young as 6 months of age (Jankowsky et al. (2004) Hum. Mol. Genet., 13:159-70; Garcia-Alloza et al. (2006) Neurobiol. Dis., 24:516-524). Planar imaging was done using a pinhole gamma camera. […] In both images mice are positioned with the dorsal surface of the mouse facing the pinhole collimator. […] There were 6 mice per each time point.
# [5] = target: AChE (Bos taurus, UniProt P23795); conditions: SDS-PAGE autoradiogram
# AChE, sequence (P23795 31-613): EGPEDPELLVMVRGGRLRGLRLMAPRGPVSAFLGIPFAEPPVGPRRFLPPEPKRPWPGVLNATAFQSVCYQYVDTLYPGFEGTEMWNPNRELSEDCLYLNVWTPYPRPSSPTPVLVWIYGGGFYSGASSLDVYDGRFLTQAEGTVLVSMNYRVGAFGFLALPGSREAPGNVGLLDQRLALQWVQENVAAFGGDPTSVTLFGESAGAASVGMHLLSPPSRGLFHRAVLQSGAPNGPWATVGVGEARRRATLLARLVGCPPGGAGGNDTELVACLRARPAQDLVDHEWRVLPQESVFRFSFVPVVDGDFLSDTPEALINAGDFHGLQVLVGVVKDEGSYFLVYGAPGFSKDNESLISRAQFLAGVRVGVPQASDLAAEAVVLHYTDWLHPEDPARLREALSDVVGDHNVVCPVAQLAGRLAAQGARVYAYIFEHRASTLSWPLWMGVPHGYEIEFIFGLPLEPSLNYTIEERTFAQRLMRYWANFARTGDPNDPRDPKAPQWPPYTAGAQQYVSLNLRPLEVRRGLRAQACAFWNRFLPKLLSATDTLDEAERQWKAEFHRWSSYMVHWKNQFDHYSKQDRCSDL
# Protocol: Lanes 1, 2: BChE-containing mouse serum incubated with 2a in (1) PBS+DMSO; (2) PBS+0.1% Triton X100+DMSO. Lanes 3-5: AChE-only containing bovine serum incubated with 2a in (3) DMSO; (4) PBS+DMSO; (5) PBS+0.1% Triton X-100+DMSO.
# [6] = Partition coefficient, shake-tube method, 1-octanol and water; type: physicochemical; conditions: 1-octanol/water; for Partition coefficient P avg (std dev): 19° C., 125I-labeled pure diastereomers
# Source text: In order to reach intracerebral targets, drugs developed for diagnosis of the AD must be able to cross two barriers separating the central nervous system (CNS) from the periphery (Hansch et al. (1987) J. Pharm. Sci., 76:663-87.), the blood-brain barrier and the blood-cerebrospinal fluid barrier. Therefore the preliminary evaluation of the new drugs included partition coefficients. CNS agents that are highly lipid soluble with the log octanol-water partition coefficient between 1 and 3 have the equilibration half-times that are proportional to brain solubility (Atkinson et al. (2002) Curr. Med. Chem., 2:229-40; Dutta et al. (1998) Br. J. Anaesth., 81:422-4; Buchwald et al. (1998) Curr. Med. Chem., 5:353-80). Only pure SP and RP diastereomers were used. Ten μCi of each ^125I-labeled compound was added to 3 mL of water, the mixture was vortexed and 1-mL aliquots were transferred into fresh tubes. To each tube 1 mL of 1-octanol was added and the mixtures were vigorously vortexed until a homogenous suspension formed. At this point, the organic and water layers were separated by centrifugation at 19° C. Aliquots of each phase were gently removed and counted in a gamma counter in a triplicate. Typically, each KP was calculated as an average of n≧18.
# T1 sequence (Q03311 30-603): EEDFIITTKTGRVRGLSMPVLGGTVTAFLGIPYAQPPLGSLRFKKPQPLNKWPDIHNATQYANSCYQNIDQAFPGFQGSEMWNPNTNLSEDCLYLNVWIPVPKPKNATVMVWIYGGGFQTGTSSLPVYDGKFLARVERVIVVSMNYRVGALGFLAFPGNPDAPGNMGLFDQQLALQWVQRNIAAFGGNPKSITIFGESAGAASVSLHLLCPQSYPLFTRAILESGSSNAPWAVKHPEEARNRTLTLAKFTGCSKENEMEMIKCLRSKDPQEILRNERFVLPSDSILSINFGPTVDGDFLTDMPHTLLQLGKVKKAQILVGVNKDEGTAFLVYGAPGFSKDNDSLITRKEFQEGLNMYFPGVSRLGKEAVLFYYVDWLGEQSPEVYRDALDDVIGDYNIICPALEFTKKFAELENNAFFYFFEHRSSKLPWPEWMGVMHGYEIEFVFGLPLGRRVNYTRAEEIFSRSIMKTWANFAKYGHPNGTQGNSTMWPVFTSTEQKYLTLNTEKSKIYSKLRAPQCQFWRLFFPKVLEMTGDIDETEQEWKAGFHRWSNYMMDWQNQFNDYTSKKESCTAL
smiles,measurement,setting,value
O=c1[nH]c(=O)n(C2CC(O)C(COP3(=O)OCc4ccccc4O3)O2)cc1[125I] (mixture of isomers) [Compound 3],brain uptake AD mice compared to wildtype controls,[1]; 48 hours after IV,~3 times
same,brain uptake in AD mice,"[1]; >12-months old AD mice, IV 10 μCi, 48 hours",0.085±0.008 % ID/g
same,brain uptake in matching wildtype controls,"[1]; control mice, IV 10 μCi, 48 hours",0.030±0.011 % ID/g
same,clusters of radioactivity in brain of AD mice,[2]; AD mouse,large clusters of radioactivity
same,clusters of radioactivity in brains of control mice,[2]; control mouse,practically absent
CC(C)(C)c1cc(C(C)(C)C)c2c(c1F)COP(=O)(OCC1OC(n3cc([125I])c(=O)[nH]c3=O)CC1O)O2 (stereo not drawn) [Compound 2a],solubility in buffers and other physiologically appropriate solvents,[3],low
same,"activity in head of AD mouse, planar image",[4],accumulation of 2a in the head of the AD mouse
same,"percent injected dose per gram brain, 2a versus 2b","[4]; AD mice, IV, all time points, 6 mice per time point",significantly higher
same,"binding to bovine serum (AChE, no BChE)",[5],complete absence
CC(C)(C)c1cc(C(C)(C)C)c2c(c1F)COP(=O)(OCC1OC(n3cc([125I])c(=O)[nH]c3=O)CC1O)O2 (stereo not drawn) [Compound 2b],"activity in head of AD mouse, planar image",[4],only the background level of activity
O=c1[nH]c(=O)n(C2CC(O)C(COP3(=O)OCc4ccccc4O3)O2)cc1[125I] (stereo not drawn) [Compound 3a],log P,[6],0.623
same,Partition coefficient P avg (std dev),[6],4.19 (0.12)
O=c1[nH]c(=O)n(C2CC(O)C(COP3(=O)OCc4ccccc4O3)O2)cc1[125I] (stereo not drawn) [Compound 3b],log P,[6],0.652
same,Partition coefficient P avg (std dev),[6],4.49 (0.25)
Cc1cccc2c1OP(=O)(OCC1OC(n3cc([125I])c(=O)[nH]c3=O)CC1O)OC2 (stereo not drawn) [Compound 4a],log P,[6],0.857
same,Partition coefficient P avg (std dev),[6],7.19 (0.37)
Cc1cccc2c1OP(=O)(OCC1OC(n3cc([125I])c(=O)[nH]c3=O)CC1O)OC2 (stereo not drawn) [Compound 4b],log P,[6],0.846
same,Partition coefficient P avg (std dev),[6],7.02 (0.34)
